In series [1] the target is Glutamate receptor ionotropic, NMDA 2B (Rattus norvegicus, UniProt P35439+Q00960). Description: Displacement of [3H]racemic CP-101606 from rat NR2B receptor in P2 membrane. The format is cell membranes. In general terms: Displacement assays read how much labelled ligand stays bound in the presence of the test substance.
The target in series [2] is Voltage-gated inwardly rectifying potassium channel KCNH2 (Homo sapiens, UniProt Q12809). Description: Inhibition of hERG. The format is toxicity. (In general: hERG is a cardiac potassium channel; its block is linked to QT prolongation.)
For series [3], the species on record is Mus musculus. The experiment in a line: Analgesic activity in PSL mouse model assessed as latency to paw withdrawal. Format: functional. The settings on record: read-out: MED.
A short description of series [4]: Bioavailability in rat. The format is ADME, organism-based. The settings on record: in vivo.
The target of series [5] is hERG (Homo sapiens, UniProt Q12809). The experiment in a line: Inhibition of hERG current at 10 uM. Format: toxicity.
The subject of series [6] is Rattus norvegicus. The experiment in a line: Effect on haloperidol catalepsy in po dosed rat assessed as […]. The format is functional. The conditions noted are these: read-out: MED.
A short description of series [7]: Metabolic stability assessed as half life in human liver microsomes. The format is ADME, Microsome.

The Ki is a measure of affinity in units of concentration, obtained from inhibition or displacement. The IC50 is the point on the concentration scale where inhibition reaches its midpoint. The low end stands for higher potency, the high end for lower potency. A word on the bioavailability: it is the share of a dose that reaches the circulation, judged against a reference dose that is usually intravenous. Broadly, the inhibition is the percentage by which the read-out fell short of the control. A higher inhibition goes with a response far below the control. Usually half-life stands for how long it takes for the measured level to halve.

Chain of Glutamate receptor ionotropic, NMDA 2B (Q00960 whole entry, one chain of several): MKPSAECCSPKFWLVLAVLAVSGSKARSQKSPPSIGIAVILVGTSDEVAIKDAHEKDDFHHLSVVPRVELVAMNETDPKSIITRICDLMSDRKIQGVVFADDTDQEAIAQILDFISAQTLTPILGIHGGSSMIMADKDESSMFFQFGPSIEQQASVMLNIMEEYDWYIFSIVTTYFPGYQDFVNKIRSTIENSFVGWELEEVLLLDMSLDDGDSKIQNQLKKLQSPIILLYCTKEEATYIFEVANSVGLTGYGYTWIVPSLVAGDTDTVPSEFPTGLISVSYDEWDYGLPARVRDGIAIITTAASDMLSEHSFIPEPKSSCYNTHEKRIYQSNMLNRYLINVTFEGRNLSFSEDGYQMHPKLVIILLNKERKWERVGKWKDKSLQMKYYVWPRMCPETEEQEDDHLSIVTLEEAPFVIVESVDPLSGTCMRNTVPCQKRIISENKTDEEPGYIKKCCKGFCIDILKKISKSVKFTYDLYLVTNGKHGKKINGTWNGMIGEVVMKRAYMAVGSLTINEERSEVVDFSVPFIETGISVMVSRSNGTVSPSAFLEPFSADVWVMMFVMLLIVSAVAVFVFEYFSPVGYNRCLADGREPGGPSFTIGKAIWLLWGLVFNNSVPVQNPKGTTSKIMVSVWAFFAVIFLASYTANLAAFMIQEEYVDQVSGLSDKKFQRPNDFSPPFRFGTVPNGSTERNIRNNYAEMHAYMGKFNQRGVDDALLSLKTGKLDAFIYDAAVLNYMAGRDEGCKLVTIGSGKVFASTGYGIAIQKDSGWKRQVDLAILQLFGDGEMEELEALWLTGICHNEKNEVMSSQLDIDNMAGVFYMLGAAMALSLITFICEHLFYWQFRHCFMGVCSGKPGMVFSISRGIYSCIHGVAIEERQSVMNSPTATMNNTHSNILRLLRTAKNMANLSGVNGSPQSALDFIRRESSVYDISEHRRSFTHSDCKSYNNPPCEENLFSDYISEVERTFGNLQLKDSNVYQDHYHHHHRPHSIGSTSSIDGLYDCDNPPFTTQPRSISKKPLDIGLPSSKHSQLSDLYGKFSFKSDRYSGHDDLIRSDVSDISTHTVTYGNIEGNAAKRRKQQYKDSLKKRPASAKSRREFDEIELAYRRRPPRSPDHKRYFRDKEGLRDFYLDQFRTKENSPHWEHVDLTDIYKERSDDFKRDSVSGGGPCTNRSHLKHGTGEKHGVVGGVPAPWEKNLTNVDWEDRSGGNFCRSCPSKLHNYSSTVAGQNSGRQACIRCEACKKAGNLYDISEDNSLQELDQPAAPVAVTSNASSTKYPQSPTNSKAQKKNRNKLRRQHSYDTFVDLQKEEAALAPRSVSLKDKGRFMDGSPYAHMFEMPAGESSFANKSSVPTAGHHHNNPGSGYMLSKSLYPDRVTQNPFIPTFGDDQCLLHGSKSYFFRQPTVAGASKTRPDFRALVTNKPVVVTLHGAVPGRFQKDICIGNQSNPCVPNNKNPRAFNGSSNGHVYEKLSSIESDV
Chain of Voltage-gated inwardly rectifying potassium channel KCNH2 (Q12809 whole entry): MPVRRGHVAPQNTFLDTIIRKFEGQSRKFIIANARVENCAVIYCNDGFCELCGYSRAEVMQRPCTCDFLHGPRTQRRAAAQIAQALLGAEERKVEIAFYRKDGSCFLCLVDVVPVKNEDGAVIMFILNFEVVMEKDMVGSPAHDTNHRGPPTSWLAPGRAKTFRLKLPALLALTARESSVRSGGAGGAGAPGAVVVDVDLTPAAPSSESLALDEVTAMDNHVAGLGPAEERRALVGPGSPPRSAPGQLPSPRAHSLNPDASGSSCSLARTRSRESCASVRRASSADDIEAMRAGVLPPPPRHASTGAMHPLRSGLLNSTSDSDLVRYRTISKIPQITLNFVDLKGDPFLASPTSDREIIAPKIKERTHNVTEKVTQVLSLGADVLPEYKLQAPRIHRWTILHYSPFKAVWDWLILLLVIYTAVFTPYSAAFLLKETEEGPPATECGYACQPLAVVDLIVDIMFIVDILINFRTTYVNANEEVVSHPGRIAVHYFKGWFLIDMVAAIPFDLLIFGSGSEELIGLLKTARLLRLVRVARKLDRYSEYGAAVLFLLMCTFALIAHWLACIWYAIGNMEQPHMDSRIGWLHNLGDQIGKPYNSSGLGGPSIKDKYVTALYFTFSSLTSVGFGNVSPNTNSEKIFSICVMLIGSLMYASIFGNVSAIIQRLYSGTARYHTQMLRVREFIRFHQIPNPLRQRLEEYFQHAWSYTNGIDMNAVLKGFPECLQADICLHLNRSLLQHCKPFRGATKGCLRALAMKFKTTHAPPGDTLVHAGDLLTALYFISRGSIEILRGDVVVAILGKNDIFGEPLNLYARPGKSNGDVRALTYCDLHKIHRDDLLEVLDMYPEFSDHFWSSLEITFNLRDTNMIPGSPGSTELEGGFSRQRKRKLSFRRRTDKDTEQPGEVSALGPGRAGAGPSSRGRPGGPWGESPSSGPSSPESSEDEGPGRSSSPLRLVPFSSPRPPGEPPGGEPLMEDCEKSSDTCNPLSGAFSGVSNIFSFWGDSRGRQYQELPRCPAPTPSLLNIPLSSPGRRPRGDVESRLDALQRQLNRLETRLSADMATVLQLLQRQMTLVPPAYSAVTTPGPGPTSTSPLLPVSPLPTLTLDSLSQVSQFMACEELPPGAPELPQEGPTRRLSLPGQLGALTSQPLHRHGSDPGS
Chain of hERG (Q12809 whole entry): as above

In series [1], `O=C(NCc1cccc(OCCc2ccccc2)c1)c1ccc(O)cc1` registered a Ki of 5.6 nM. This counts as single-digit nanomolar. In the case of `O=C(NC[C@H]1CC[C@@H](CCOc2ccccc2)CC1)c1cn[nH]c1`, the IC50 in series [2] was above 30000 nM. Also, in series [1], the Ki was 4.2 nM. For the same compound, in series [3], the minimal effective dose was determined as 3 mg/kg. Also, the bioavailability in series [4] was determined as 43%. In series [5], this compound came in with an inhibition at 10 µM of 36%.

As to `O=C(NC[C@H]1CC[C@@H](COc2ccccc2)CC1)c1ccc(O)cc1`, the affinity in series [1] corresponds to a Ki of 6.8 nM. Besides, the minimal effective dose in series [6] turned out to be 3 mg/kg. In addition, in series [7], the half-life is 2.3 min.

`O=C(NC[C@H]1CC[C@@H](COc2ccccc2)CC1)c1ccn[nH]1` displayed a Ki in series [1] above 100 nM. `O=C(NC[C@H]1CC[C@@H](CCOc2ccccc2)CC1)c1cc[nH]c1` came in with a Ki in series [1] of 6.8 nM.

Turning to `O=C(NC[C@H]1CC[C@@H](CCOc2ccccc2)CC1)c1cc(F)c(O)c(F)c1`, in series [1], the Ki came to 8.5 nM.

`O=C1CCc2cc(C(=O)NC[C@H]3CC[C@@H](COc4ccccc4)CC3)ccc2N1`: affinity in series [1] was put at a Ki of 18 nM.

`Nc1[nH]ncc1C(=O)NC[C@H]1CC[C@@H](COc2ccccc2)CC1` registered a Ki in series [1] above 100 nM. As to `O=C(NC[C@H]1CC[C@@H](CCOc2ccccc2)CC1)c1ccn[nH]1`, the Ki in series [1] was determined as 8.9 nM. Also, the half-life in series [7] was 36 min. On the same counts, the results for `Nc1n[nH]cc1C(=O)NC[C@H]1CC[C@@H](CCOc2ccccc2)CC1` are 3.7 nM and 59 min. Compound `O=C(NC[C@H]1CC[C@@H](COc2ccccc2)CC1)c1cn[nH]c1` showed a Ki in series [1] of 14 nM. In series [7], the half-life amounted to 44 min. In the case of `O=C(NC[C@H]1CC[C@@H](CCOc2ccccc2)CC1)c1ccc(=O)[nH]n1`, the affinity in series [1] corresponds to a Ki of 5.6 nM. For `O=C1C=CC(C(=O)NC[C@H]2CC[C@@H](COc3ccccc3)CC2)NN1` (stereo partly drawn), the Ki in series [1] was above 100 nM. On the same count and under the same terms, for `O=C1C=CC(C(=O)NC[C@H]2CC[C@@H](CCOc3ccccc3)CC2)NN1` (stereo partly drawn) the value was 11 nM. Compound `Cc1n[nH]c(C)c1C(=O)NC[C@H]1CC[C@@H](COc2ccccc2)CC1` had a Ki in series [1] above 100 nM.

In series [1], `Cc1n[nH]c(C)c1C(=O)NC[C@H]1CC[C@@H](CCOc2ccccc2)CC1` yielded an inhibition constant (Ki) above 100 nM. `O=C(NC[C@H]1CC[C@@H](CCOc2ccccc2)CC1)c1ccc2[nH]ncc2c1` had a Ki in series [1] of 15 nM. This lies in the double-digit nanomolar range. Still for that read-out and setting: next, `O=C(NC[C@H]1CC[C@@H](COc2ccccc2)CC1)c1cc[nH]c1`: 84 nM; `O=C(NC[C@H]1CC[C@@H](COc2ccccc2)CC1)c1ccc(=O)[nH]n1`: above 100 nM. The compound `O=C(NCc1cccc(C(=O)NCc2ccccc2)c1)c1ccc(O)cc1` showed an IC50 in series [2] above 30000 nM. In series [1], this compound had a Ki of 15 nM. For `O=C1CCc2cc(C(=O)NC[C@H]3CC[C@@H](CCOc4ccccc4)CC3)ccc2N1`, the inhibition constant Ki in series [1] was 5.9 nM. The same measure, in the same setting: for `O=C(NC[C@H]1CC[C@@H](CCOc2ccccc2)CC1)c1ccc(O)cc1` the value was 20 nM; for `O=C(NC[C@H]1CC[C@@H](COc2ccccc2)CC1)c1cc(F)c(O)c(F)c1`, 12 nM.
